From patent US20100323989A1, “PHARMACEUTICAL COMBINATIONS USEFUL FOR TREATING HCV” (Gilead Sciences, Inc., priority 2009, published 2010)
Like-named read-outs stand apart in the source and are kept apart here.

What was measured:
[1] = system: HCV genotype 1b replicon cells (Huh-luc); assay: EC50 determination in HCV genotype 1b Huh-luc replicon cells (luciferase); format: cell-based; details: Hepatitis C virus, 72 h, 3 days, average ± standard deviation
Procedure: (§1) HCV genotype 1b replicon cells (Huh-luc) were obtained from Reblikon (Mainz, Germany). The replicon in these cells is designated I389luc-ubi-neo/NS3-3′/ET and encodes a selectable resistance marker (neomycin phosphotransferase) as well as the firefly luciferase reporter gene. Huh-luc cells were maintained in Dulbecco's Modified Eagle's Medium (DMEM; GIBCO, Carlsbad, Calif.) supplemented with 10% fetal bovine serum (FBS; Hyclone, Logan, Utah) and 0.5 mg/mL of G-418 (GIBCO). Cells were passaged twice a week and maintained at subconfluent levels.
Replicon cells were seeded in 96-well plates at a density of 5×10^3 cells per well in 100 μL of DMEM culture medium, excluding G-418. Compounds 1 and 2 were serially diluted 1:3 in 100% DMSO (Sigma). These serial dilutions were added to the cells at a 1:200 dilution to achieve a final concentration of 0.5% DMSO in a total volume of 200 μL. […] HCV replication levels in drug-treated samples were expressed as a percentage of those in untreated controls (defined as 100%), and data were fit to the logistic dose response equation y=a/(1+(x/b)c) using XLFit4 software (IDBS, Emeryville, Calif.). EC50 values were calculated from the resulting equations as described previously (Delaney, W. E., et al., Antimicrobial Agents Chemotherapy, 45(6):1705-1713 (2001)).

[2] = system: HCV genotype 1b replicon cells (Huh-luc); assay: Combination study in Huh-luc replicon cells analysed with MacSynergy II; format: cell-based; details: Compound 1 in combination with Compound 2, MacSynergy II
Procedure: as §1
For each individual drug, the EC50 value was selected as the midpoint for the concentration range tested. Cells were incubated for three days and analyzed for luciferase expression as indicated above. For the combination study, two independent experiments were performed in triplicate.
The calculated volumes of surface deviations are expressed in nM2%. Per Prichard and Shipman, combination effects are defined as:
Highly synergistic if volumes >100 nM^2.
Slightly synergistic if volumes are >50 and ≦100 nM^2.
Additive if volumes are >−50 nM^2 and ≦50 nM^2.
Slightly antagonistic if volumes are >−100 nM^2 and ≦−50 nM^2.
Antagonistic if volumes are ≦−100 nM^2.

[3] = system: wild-type 1b Con-1 PI-Luc replicon; assay: Transient transfection replicon assay, wild type; format: cell-based, HCV genotype 1b; details: Hepatitis C virus
[4] = system: 1b Con-1 PI-Luc replicon with NS5B polymerase mutation M423T; format: cell-based, HCV genotype 1b; details: ratio of mutant EC50 to wild type EC50, NS5B M423T
[5] = system: 1b Con-1 PI-Luc replicon with NS5B polymerase mutation M414T; format: cell-based, HCV genotype 1b; details: ratio of mutant EC50 to wild type EC50, NS5B M414T
[6] = system: 1b Con-1 PI-Luc replicon with NS5B polymerase mutation Y448H; format: cell-based, HCV genotype 1b; details: ratio of mutant EC50 to wild type EC50, NS5B Y448H
[7] = system: 1b Con-1 PI-Luc replicon with NS5B polymerase mutations C316Y/C445F/Y452H; format: cell-based, HCV genotype 1b; details: ratio of mutant EC50 to wild type EC50, NS5B C316Y/C445F/Y452H
[8] = system: 1b PI-luc replicon with NS3 protease mutation V36M; format: cell-based, HCV genotype 1b; details: ratio of mutant EC50 to wild type EC50, NS3 V36M
[9] = system: 1b PI-luc replicon with NS3 protease mutation T54A; format: cell-based, HCV genotype 1b; details: ratio of mutant EC50 to wild type EC50, NS3 T54A
[10] = system: 1b PI-luc replicon with NS3 protease mutation R155K; format: cell-based, HCV genotype 1b; details: ratio of mutant EC50 to wild type EC50, NS3 R155K
[11] = system: 1b PI-luc replicon with NS3 protease mutation A156T; format: cell-based, HCV genotype 1b; details: ratio of mutant EC50 to wild type EC50, NS3 A156T
[12] = system: 1b PI-luc replicon with NS3 protease mutation D168E; format: cell-based, HCV genotype 1b; details: ratio of mutant EC50 to wild type EC50, NS3 D168E
[13] = system: 1b PI-luc replicon with NS3 protease mutation D168V; format: cell-based, HCV genotype 1b; details: ratio of mutant EC50 to wild type EC50, NS3 D168V
[14] = Pharmacokinetic drug-drug interaction study, single dose with multiple-dose partner, healthy subjects (Example 6); format: in vivo, human; details: for AUC(0-t) / AUC(0-inf) / Cmax / half-life: human, plasma, Group 3, human; for AUC(0-t): read-out: Compound 2 AUC0-last, Mean (% CV); for AUC(0-inf): read-out: Compound 2 AUCinf, Mean (% CV); for Cmax: read-out: Compound 2 Cmax, Mean (% CV); for half-life: read-out: Compound 2 T1/2, Median (min, max) (converted)
Procedure: In this study, healthy subjects were randomized into one of the following three treatment groups: […] Treatment Group 3 (N=20): […] Serial blood samples for analysis of plasma concentrations of Compound 2 were collected up to 72 hours post-morning dose on Days 1 and 10 to determine systemic drug exposure.

[15] = Multiple-dose pharmacokinetic interaction study in healthy subjects (Example 5); format: in vivo, human; details: plasma, human, oral, Compound 2 (75 mg BID) alone, Day 7
[16] = Group 3, Compound 1 + Compound 2 / Compound 2 alone
[17] = Group 3, Compound 2 75 mg with Compound 1 40 mg BID vs Compound 2 75 mg alone
[18] = 75 mg, Compound 2 75 mg SD alone
[19] = Compound 2 75 mg SD + Compound 1 40 mg BID

For `COc1ccc2c(O[C@@H]3C[C@H]4C(=O)N[C@]5(P(=O)(O)Cc6c(F)cccc6F)C[C@H]5CCCCCCC[C@H](NC(=O)OC5CCCC5)C(=O)N4C3)cc(-c3csc(NC(C)C)n3)nc2c1Cl` [Compound 2], the EC50 [1] was 11 ± 3 nM, the Interaction [2] was “additive” and the EC50 ([3]; Table 3 (NS5B mutation study)) was 50.7 nM. The EC50 ([3]; Table 4 (NS3 protease mutation study)) was 21.4 nM, the “Fold Resistance M423T” value [4] was 1.1 fold and the “Fold Resistance M414T” value [5] was 2.0 fold. For the same compound, the “Fold Resistance Y448H” value [6] was 1.0 fold, the “Fold Resistance C316Y/C445F/Y452H” value [7] was 2.1 fold and the “Fold Resistance V36M” value [8] was 3.0 fold. For the same compound, the “Fold Resistance T54A” value [9] was 0.6 fold, the “Fold Resistance R155K” value [10] was 566.3 fold and the “Fold Resistance A156T” value [11] was 1882.4 fold. For the same compound, the “Fold Resistance D168E” value [12] was 120.0 fold, the “Fold Resistance D168V” value [13] was 1832.3 fold and the “Compound 2 AUC0-last, % Geometric Least-Squares Mean Ratio (90% CI)” value [14, 16] was 83.8 (75.5, 93.2) %. The “Compound 2 AUCinf, % Geometric Least-Squares Mean Ratio (90% CI)” value [14, 16] was 84.9 (76.6, 94.1) %, the “Compound 2 Cmax, % Geometric Least-Squares Mean Ratio (90% CI)” value [14, 16] was 81.3 (72.5, 91.1) % and the “Median terminal elimination half-lives of Compound 2, comparison between the two treatments” value ([14]; Group 3, Compound 2 75 mg alone vs with Compound 1 40 mg BID) was “similar”. For the same compound, the “decrease in AUC0-last of Compound 2” value [14, 17] was 16%, the “decrease in AUCinf of Compound 2” value [14, 17] was 15% and the “decrease in Cmax of Compound 2” value [14, 17] was 19%. The AUC(0-t) [14, 18] was 8790 ng·h/mL, the AUC(0-inf) [14, 18] was 9460 ng·h/mL and the Cmax [14, 18] was 1040 ng/mL. For the same compound, the half-life [14, 18] was 5.05 h, the AUC(0-t) [14, 19] was 7270 ng·h/mL and the AUC(0-inf) [14, 19] was 7920 ng·h/mL. The Cmax [14, 19] was 830 ng/mL, the half-life [14, 19] was 6.06 h and the Cmax ([15]; read-out: Compound 2 Cmax, Mean (% CV)) was 4500 ng/mL. For the same compound, the concentration at 12 h ([15]; read-out: Compound 2 Ctau, Mean (% CV)) was 1550 ng/mL.
